The values below come from BindingDB's records for doi:10.1016/j.chembiol.2008.07.015 (Duke University Medical Center, 2008).

Common to all, as to assay: BP Incorporation Assay
What all share (conditions): 37 °C

Assay [1] deals with Protein kinase C alpha type/glutamine gamma-glutamyltransferase 2 (Homo sapiens, UniProt P17252+P21980). The protocol:
(§1) In order to eliminated fluorescence interference, chemicals were subjected to a secondary screening using colorimetric BP incorporation assay. TGase/TGMS activity was determined by quantifying the incorporation of BP into N,N'-dimethylcasein in a microtiter plate.

Assay [2] deals with T1, Protein-glutamine gamma-glutamyltransferase 2 (Homo sapiens, UniProt P21980).
T1 sequence (P21980 whole entry): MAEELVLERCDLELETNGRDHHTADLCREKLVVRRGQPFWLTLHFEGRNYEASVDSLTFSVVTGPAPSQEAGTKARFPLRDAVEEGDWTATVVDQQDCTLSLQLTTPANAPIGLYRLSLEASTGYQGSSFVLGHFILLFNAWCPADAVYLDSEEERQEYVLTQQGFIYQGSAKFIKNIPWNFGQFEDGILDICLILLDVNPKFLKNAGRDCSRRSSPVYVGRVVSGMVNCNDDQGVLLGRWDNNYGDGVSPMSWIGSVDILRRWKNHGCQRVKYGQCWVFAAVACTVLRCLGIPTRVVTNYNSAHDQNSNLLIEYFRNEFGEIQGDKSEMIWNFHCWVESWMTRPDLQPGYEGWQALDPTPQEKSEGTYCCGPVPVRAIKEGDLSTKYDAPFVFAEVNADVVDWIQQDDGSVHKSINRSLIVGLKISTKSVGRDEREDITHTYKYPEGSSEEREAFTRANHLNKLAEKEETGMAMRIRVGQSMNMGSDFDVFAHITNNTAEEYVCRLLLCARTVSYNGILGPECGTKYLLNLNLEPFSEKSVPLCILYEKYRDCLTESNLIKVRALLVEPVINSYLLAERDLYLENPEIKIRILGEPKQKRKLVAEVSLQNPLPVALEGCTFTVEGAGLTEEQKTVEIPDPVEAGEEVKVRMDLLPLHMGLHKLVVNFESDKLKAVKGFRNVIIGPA
The procedure:
as §1

The target in assay [3] is Protein-glutamine gamma-glutamyltransferase 2/Receptor protein-tyrosine kinase (Homo sapiens, UniProt P21980+Q504U8). The procedure: as §1
Chain of Protein-glutamine gamma-glutamyltransferase 2/Receptor protein-tyrosine kinase (Q504U8 whole entry, one chain of several): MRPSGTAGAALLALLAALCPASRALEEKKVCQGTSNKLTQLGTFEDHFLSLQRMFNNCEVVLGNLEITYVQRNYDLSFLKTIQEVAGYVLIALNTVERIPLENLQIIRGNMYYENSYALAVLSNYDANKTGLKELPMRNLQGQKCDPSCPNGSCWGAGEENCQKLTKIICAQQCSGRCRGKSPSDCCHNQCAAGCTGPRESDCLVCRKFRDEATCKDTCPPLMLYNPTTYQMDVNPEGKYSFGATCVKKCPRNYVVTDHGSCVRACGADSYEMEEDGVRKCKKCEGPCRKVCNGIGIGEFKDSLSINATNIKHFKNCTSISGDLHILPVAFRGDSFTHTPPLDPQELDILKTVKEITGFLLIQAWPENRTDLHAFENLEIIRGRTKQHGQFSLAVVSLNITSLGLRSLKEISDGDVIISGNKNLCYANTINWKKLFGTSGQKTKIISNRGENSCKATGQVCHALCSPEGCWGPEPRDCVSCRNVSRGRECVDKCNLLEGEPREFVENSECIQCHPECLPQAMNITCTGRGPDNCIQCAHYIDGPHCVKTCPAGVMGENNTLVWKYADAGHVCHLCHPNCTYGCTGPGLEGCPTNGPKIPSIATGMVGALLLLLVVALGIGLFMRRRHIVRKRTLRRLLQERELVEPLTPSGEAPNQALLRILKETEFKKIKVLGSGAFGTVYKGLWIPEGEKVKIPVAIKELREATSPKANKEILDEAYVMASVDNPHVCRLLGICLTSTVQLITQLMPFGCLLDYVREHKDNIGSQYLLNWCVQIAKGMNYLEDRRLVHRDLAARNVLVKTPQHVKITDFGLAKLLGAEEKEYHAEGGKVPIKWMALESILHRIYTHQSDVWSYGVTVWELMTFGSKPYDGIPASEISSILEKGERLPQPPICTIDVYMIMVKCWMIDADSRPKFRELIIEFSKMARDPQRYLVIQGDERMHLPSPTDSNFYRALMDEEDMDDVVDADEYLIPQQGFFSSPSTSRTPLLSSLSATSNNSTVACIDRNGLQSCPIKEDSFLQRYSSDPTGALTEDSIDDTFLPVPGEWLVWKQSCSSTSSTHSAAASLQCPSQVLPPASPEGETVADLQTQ

One may read the IC50 as the concentration that gives 50% inhibition. Higher therefore signals weaker potency in that assay. With `CC(=O)c1c(O)c(C)c(O)c(Cc2c(O)c3c(c(C(=O)C=Cc4ccccc4)c2O)OC(C)(C)C=C3)c1O` [(E)-1-(6-(3-acetyl-2,4,6-trihydroxy-5-methylbenzyl)-5,7-dihydroxy-2,2-dimethyl-2H-chromen-8-yl)-3-phenylprop-2-en-1-one], the IC50 in assay [1] was found to be 20 µM.

In turn, `O=C1Nc2ccc(I)cc2/C1=C/c1cc(Br)c(O)c(Br)c1` [G6416 (GW5074)] had an IC50 in assay [1] of 15 µM.

The compound `CC1=CC(=O)c2ccccc2C1=O` [Vitamin K3] returned an IC50 in assay [2] of 2.2 µM.

In the case of `N#C/C(=C\c1ccc(O)c(O)c1)C(N)=S` [alpha-Cyano-(3,4-dihydroxy)thiocinnamide], in assay [3], 3 µM corresponded to half-maximal inhibition (IC50).
